In ChEMBL document CHEMBL2412957, “Synthesis and SAR of 4-aminocyclopentapyrrolidines as orally active N-type calcium channel inhibitors for inflammatory and neuropathic pain” (Bioorg Med Chem Lett, 2013):
Values after ≈ are worked out from the molar mass of the structure shown.

Key:
[1] = target: Voltage-gated inwardly rectifying potassium channel KCNH2 (Homo sapiens, UniProt Q12809); test: Inhibition of dofetilide binding to human ERG
[2] = Metabolic stability in rat liver microsomes assessed as compound remaining after 30 mins; assay type: ADME, Microsome; conditions: read-out: Stability
[3] = Metabolic stability in human liver microsomes assessed as compound remaining after 30 mins; assay type: ADME, Microsome; conditions: read-out: Stability
[4] = Solubility of the compound by chemiluminescent nitrogen detection method
[5] = target: Voltage-dependent N-type calcium channel subunit alpha-1B (Homo sapiens, UniProt Q00975); test: Inhibition of N-type Cav2.2 channel (unknown origin) by FLIPR assay
Voltage-dependent N-type calcium channel subunit alpha-1B (Homo sapiens, UniProt Q00975), sequence (Q00975 whole entry): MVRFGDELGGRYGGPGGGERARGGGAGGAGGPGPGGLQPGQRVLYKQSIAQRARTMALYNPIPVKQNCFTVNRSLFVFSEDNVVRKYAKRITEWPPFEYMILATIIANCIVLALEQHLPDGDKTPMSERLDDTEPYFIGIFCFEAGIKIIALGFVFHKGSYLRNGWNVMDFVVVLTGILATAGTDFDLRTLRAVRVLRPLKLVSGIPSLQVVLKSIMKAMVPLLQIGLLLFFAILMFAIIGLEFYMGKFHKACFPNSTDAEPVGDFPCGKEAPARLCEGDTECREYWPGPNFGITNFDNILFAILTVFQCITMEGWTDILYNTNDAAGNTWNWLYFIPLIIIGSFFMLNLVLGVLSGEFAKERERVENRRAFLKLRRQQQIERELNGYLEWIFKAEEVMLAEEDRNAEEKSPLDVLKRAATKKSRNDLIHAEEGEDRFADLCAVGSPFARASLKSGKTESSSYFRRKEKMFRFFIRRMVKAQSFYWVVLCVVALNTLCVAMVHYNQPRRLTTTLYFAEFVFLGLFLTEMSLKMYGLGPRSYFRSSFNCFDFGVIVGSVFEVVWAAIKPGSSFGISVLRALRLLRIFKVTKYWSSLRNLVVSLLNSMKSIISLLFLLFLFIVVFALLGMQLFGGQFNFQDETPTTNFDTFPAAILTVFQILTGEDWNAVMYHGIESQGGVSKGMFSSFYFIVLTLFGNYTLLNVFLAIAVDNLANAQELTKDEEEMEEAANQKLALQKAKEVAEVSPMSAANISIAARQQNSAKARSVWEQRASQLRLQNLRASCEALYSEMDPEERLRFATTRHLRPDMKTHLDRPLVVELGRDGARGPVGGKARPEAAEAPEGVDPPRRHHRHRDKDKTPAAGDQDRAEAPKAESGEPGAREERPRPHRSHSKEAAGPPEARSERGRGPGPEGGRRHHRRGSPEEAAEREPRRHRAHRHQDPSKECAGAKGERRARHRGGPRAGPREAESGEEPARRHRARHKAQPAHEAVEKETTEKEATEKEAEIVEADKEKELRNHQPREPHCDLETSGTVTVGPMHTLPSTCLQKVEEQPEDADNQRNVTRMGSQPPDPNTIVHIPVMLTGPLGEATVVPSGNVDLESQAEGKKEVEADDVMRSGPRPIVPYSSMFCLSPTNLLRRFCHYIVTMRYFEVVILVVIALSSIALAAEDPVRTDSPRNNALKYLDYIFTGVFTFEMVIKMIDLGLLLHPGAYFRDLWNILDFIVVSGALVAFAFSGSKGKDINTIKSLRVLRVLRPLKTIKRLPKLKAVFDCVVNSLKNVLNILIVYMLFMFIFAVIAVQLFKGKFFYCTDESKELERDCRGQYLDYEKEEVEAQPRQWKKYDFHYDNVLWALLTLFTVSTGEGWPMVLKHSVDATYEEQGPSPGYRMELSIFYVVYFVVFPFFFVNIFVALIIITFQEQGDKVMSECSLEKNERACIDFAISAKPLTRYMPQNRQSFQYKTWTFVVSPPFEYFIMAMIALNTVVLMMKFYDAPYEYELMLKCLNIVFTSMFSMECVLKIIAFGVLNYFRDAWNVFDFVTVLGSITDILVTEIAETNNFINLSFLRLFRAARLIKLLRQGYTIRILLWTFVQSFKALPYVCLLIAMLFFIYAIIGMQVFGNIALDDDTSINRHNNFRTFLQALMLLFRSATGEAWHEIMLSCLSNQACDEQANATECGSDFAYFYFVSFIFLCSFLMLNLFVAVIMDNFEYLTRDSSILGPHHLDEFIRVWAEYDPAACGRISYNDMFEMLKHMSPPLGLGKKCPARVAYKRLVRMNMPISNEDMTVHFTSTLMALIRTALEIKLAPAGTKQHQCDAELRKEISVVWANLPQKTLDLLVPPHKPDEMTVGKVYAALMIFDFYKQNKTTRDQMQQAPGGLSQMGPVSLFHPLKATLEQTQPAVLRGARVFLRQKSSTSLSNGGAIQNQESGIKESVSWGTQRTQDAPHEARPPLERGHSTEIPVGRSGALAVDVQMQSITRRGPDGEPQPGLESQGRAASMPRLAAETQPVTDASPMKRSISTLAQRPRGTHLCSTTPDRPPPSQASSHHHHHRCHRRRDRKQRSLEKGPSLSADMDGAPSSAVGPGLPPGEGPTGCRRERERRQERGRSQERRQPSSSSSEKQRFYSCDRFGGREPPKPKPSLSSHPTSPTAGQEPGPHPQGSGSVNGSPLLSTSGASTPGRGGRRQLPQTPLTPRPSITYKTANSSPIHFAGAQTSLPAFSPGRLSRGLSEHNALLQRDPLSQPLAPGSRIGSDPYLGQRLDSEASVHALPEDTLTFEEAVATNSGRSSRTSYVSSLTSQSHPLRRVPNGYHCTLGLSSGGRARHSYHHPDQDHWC

Rattus norvegicus [6] = organism: Rattus norvegicus; test: Analgesic activity in rat chronic constriction injury-induced neuropathic pain model; assay type: functional
Rattus norvegicus [7] = organism: Rattus norvegicus; test: Analgesic activity in rat monoiodoaceate-induced osteoarthritis pain model; assay type: functional
[8] = target: T1, Voltage-dependent N-type calcium channel subunit alpha-1B (Rattus norvegicus, UniProt Q02294); test: Inhibition of rat N-type Cav2.2 channel expressed in HEK293 cells under hyperpolarized condition by whole cell patch-clamp manual electrophysiology assay; assay type: cell-based
T1 sequence (Q02294 whole entry): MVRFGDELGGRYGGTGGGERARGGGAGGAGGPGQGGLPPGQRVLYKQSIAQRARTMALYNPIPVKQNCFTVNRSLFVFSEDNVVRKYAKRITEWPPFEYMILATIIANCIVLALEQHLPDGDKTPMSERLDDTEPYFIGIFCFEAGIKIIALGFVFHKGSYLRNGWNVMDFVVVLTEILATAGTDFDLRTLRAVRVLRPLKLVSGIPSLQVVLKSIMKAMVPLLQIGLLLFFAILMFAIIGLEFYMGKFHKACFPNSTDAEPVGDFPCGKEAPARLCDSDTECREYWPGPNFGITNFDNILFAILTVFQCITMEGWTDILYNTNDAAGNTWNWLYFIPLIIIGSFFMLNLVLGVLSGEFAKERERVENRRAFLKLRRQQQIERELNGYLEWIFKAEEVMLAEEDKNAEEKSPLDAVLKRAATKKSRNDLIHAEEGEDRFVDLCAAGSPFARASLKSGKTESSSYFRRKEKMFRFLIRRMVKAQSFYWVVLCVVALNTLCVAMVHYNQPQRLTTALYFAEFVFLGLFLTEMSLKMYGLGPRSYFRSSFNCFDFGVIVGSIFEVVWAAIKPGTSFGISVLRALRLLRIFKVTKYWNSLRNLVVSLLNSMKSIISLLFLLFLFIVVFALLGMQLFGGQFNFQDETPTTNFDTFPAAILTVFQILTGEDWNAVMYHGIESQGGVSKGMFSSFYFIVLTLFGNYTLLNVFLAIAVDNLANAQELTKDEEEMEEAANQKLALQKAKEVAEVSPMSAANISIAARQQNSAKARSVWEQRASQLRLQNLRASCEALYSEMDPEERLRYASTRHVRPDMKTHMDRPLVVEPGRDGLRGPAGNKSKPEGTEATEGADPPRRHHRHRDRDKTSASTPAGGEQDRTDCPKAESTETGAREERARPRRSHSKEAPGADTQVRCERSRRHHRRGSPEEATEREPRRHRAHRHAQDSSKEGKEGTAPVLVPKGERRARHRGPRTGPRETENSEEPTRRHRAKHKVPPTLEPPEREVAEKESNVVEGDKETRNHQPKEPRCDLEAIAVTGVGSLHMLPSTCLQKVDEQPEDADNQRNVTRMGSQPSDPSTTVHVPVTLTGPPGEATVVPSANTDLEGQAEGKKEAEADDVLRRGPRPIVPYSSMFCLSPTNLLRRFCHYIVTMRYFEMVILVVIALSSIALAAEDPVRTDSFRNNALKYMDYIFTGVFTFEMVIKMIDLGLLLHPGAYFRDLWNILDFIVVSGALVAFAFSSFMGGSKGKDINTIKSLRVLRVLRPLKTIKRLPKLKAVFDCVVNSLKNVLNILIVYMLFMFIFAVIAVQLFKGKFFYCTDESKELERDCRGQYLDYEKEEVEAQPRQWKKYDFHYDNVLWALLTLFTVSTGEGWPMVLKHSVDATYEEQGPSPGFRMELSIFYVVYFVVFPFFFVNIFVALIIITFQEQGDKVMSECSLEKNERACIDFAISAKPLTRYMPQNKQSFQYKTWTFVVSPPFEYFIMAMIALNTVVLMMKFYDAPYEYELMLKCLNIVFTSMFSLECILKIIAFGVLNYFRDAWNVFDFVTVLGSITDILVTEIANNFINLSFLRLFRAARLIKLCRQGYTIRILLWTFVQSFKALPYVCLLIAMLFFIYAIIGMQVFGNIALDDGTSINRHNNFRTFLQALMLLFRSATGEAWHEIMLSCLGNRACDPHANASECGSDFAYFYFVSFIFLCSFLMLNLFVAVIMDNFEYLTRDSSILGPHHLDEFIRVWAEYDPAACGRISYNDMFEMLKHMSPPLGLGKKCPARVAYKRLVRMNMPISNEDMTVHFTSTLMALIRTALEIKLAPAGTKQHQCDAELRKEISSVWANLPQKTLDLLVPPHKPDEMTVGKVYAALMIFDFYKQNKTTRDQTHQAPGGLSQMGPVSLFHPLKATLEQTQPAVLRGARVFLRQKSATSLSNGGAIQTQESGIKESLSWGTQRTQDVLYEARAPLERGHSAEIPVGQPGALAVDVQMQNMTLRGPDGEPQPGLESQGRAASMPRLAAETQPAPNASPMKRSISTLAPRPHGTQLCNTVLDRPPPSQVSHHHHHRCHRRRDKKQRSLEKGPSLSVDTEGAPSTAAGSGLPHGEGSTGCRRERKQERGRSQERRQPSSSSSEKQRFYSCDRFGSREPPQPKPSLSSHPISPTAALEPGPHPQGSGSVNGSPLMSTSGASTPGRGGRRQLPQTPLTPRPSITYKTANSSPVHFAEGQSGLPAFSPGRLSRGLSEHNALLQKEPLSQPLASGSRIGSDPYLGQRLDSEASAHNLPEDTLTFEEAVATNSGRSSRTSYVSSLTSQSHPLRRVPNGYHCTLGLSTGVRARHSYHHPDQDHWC

[9] = target: T1, Voltage-dependent N-type calcium channel subunit alpha-1B; test: Inhibition of rat N-type Cav2.2 channel expressed in HEK293 cells under depolarized condition by whole cell patch-clamp manual electrophysiology assay; assay type: cell-based
[10] = Oral bioavailability in rat at 5 umol/kg; assay type: ADME, organism-based; conditions: in vivo
[11] = AUC in rat at 5 umol/kg, po; assay type: ADME, organism-based; conditions: plasma
[12] = Ratio of drug level brain to plasma in rat at 3 umol/kg, ip after 30 mins; assay type: ADME, organism-based; conditions: read-out: BPR
[13] = Plasma clearance in rat at 5 umol/kg, iv and 5 umol/kg, po; assay type: ADME, organism-based
[14] = Half life in rat at 5 umol/kg, iv and 5 umol/kg, po; assay type: ADME, organism-based; conditions: in vivo
[15] = Volume of distribution at steady state in rat at 5 umol/kg, iv and 5 umol/kg, po; assay type: ADME, organism-based; conditions: in vivo, read-out: Vdss
[16] = (§1) Plasma clearance in rat at 5 umol/kg, iv and 30 umol/kg, po; assay type: ADME, organism-based; conditions: plasma
[17] = (§2) Oral bioavailability in rat at 30 umol/kg; assay type: ADME, organism-based; conditions: in vivo, 30 umol/kg
[18] = Volume of distribution at steady state in rat at 5 umol/kg, iv and 30 umol/kg, po; assay type: ADME, organism-based; conditions: in vivo, read-out: Vdss
[19] = Half life in rat at 5 umol/kg, iv and 30 umol/kg, po; assay type: ADME, organism-based; conditions: in vivo
[20] = (§3) AUC in rat at 30 umol/kg, po; assay type: ADME, organism-based, Plasma; conditions: plasma, 30 umol/kg
[21] = target: Voltage-gated L-type calcium channel (Rattus norvegicus, UniProt P22002+Q02485+P27732); test: Inhibition of L-type calcium channel in rat aorta ring tissue assessed as relaxation of tissue; assay type: tissue-based
Rattus norvegicus [22] = test: Cardiotoxicity in anesthetized rat assessed as decrease in mean arterial pressure at plasma concentration of 1.57 ug/mL; assay type: toxicity, organism-based
Rattus norvegicus [23] = organism: Rattus norvegicus; test: Analgesic activity in rat capsaicin secondary mechanical hyperalgesia pain model; assay type: functional
[24] = Ratio of drug level brain to plasma in po dosed rat after 60 mins; assay type: ADME, organism-based; conditions: read-out: BPR
Rattus norvegicus [25] = test: as §3; assay type: ADME, organism-based, Plasma; conditions: in vivo
Rattus norvegicus [26] = test: as §1; assay type: ADME, organism-based; conditions: in vivo
Rattus norvegicus [27] = test: as §2; assay type: ADME, organism-based; conditions: in vivo, at 30 µmol/kg

SMILES	remaining at 0.5 h [2] [%]	remaining at 0.5 h [3] [%]	solubility [4] [µM]	IC50 ([5]; read-out: IC50) [nM]	IC50 ([5]; read-out: pIC50 (converted)) [nM]	further results
O=C(N[C@H]1CC[C@H]2CN(Cc3cccc(C(F)(F)F)c3)C[C@H]21)C(C1CCCCC1)C1CCCCC1	0.1	0.5	< 3	–	–	Ki [1]: 690 nM
CCN[C@@H](CC(C)(C)C)C(=O)N[C@H]1CC[C@@H]2CN(S(=O)(=O)c3ccc(C(F)(F)F)cc3)C[C@@H]21	89.2	22.8	20 (≈ 9.79 µg/mL)	490	575	–
CN[C@@H](CC(C)C)C(=O)N[C@H]1CC[C@@H]2CN(c3cccc(C(F)(F)F)c3)C[C@@H]21	81	73	56 (≈ 22.3 µg/mL)	–	1170	–
CN[C@@H](CC(C)C)C(=O)N[C@H]1CC[C@@H]2CN(c3ccc(C(F)(F)F)cc3)C[C@@H]21	> 85	> 85	33 (≈ 13.1 µg/mL)	1240	–	ED50 (Rattus norvegicus [6]): 10 mg/kg; ED50 (Rattus norvegicus [7]): 3 mg/kg; IC50 [8]: 4400 nM; IC50 [9]: 1000 nM; bioavailability [10]: 83%; AUC [11]: 799 ng·h/mL; Kp at 0.5 h [12]: 16.5; clearance [13]: 21.7 mL/min/kg; half-life [14]: 15.4 h; Vd [15]: 26.5 L/kg
CN[C@@H](CC(C)C)C(=O)N[C@H]1CC[C@@H]2CN(c3ccc(OC(F)(F)F)cc3)C[C@@H]21	66	> 85	31 (≈ 12.8 µg/mL)	5150	–	–
O=C(N[C@@H]1CC[C@H]2CN(Cc3cccc(C(F)(F)F)c3)C[C@H]21)C(C1CCCCC1)C1CCCCC1	2.6	1.2	< 3	1870	–	Ki [1]: 9520 nM
CN[C@@H](CC(C)C)C(=O)N[C@@H]1CC[C@H]2CN(Cc3cccc(C(F)(F)F)c3)C[C@H]21	60.7	19.4	67 (≈ 27.6 µg/mL)	1890	–	–
CC(C)C[C@H](NS(C)(=O)=O)C(=O)N[C@@H]1CC[C@H]2CN(Cc3cccc(C(F)(F)F)c3)C[C@H]21	42.1	23.6	80 (≈ 38 µg/mL)	2840	–	–
CC(C)C[C@H](N)C(=O)N[C@@H]1CC[C@H]2CN(S(=O)(=O)c3cccc(C(F)(F)F)c3)C[C@H]21	10.3	45	44 (≈ 19.7 µg/mL)	1060	–	clearance [16]: 568 mL/min/kg; bioavailability [17]: 0%; Vd [18]: 15 L/kg; half-life [19]: 0.5 h
CN[C@@H](CC(C)C)C(=O)N[C@@H]1CC[C@H]2CN(S(=O)(=O)c3cccc(C(F)(F)F)c3)C[C@H]21	26.5	25.5	75 (≈ 34.6 µg/mL)	520	631	AUC [20]: 405 ng·h/mL; clearance [16]: 60 mL/min/kg; bioavailability [17]: 10.5%; Vd [18]: 9.2 L/kg; half-life [19]: 2 h
CN[C@@H](CC(C)C)C(=O)N[C@@H]1CC[C@H]2CN(S(=O)(=O)c3ccc(C(F)(F)F)cc3)C[C@H]21	47.3	50.5	27 (≈ 12.5 µg/mL)	770	851	bioavailability [10]: 21%; AUC [11]: 221 ng·h/mL; clearance [13]: 36.7 mL/min/kg; half-life [14]: 2.1 h; Vd [15]: 5.6 L/kg
CC(C)C[C@@H](C(=O)N[C@@H]1CC[C@H]2CN(S(=O)(=O)c3cccc(C(F)(F)F)c3)C[C@H]21)N(C)C	1	0.1	79 (≈ 37.6 µg/mL)	450	–	AUC [20]: 35 ng·h/mL; clearance [16]: 56.7 mL/min/kg; bioavailability [17]: 0.8%; Vd [18]: 5.2 L/kg; half-life [19]: 1.4 h
CN[C@@H](CC(C)C)C(=O)N[C@H]1CC[C@@H]2CN(S(=O)(=O)c3ccc(C(F)(F)F)cc3)C[C@@H]21	69.9	54.4	77 (≈ 35.5 µg/mL)	750	851	bioavailability [10]: 50%; AUC [11]: 422 ng·h/mL; clearance [13]: 46.7 mL/min/kg; half-life [14]: 3.3 h; Vd [15]: 13.2 L/kg
CCC[C@H](NC)C(=O)N[C@H]1CC[C@@H]2CN(S(=O)(=O)c3ccc(C(F)(F)F)cc3)C[C@@H]21	83.4	74.6	97 (≈ 43.4 µg/mL)	960	–	–
CCCC[C@H](NC)C(=O)N[C@H]1CC[C@@H]2CN(S(=O)(=O)c3ccc(C(F)(F)F)cc3)C[C@@H]21	66.4	51.1	38 (≈ 17.5 µg/mL)	750	–	–
CC(C)(C)[C@H](N)C(=O)N[C@H]1CC[C@@H]2CN(S(=O)(=O)c3ccc(C(F)(F)F)cc3)C[C@@H]21	77.1	75.6	94 (≈ 42.1 µg/mL)	1510	–	–
CC(C)(C)C[C@H](N)C(=O)N[C@H]1CC[C@@H]2CN(S(=O)(=O)c3ccc(C(F)(F)F)cc3)C[C@@H]21	79.4	41.8	68 (≈ 31.4 µg/mL)	870	933	–
CN[C@@H](CC(C)(C)C)C(=O)N[C@H]1CC[C@@H]2CN(S(=O)(=O)c3ccc(C(F)(F)F)cc3)C[C@@H]21	66.5	33.6	76 (≈ 36.1 µg/mL)	790	832	–
CN[C@@H](Cc1ccccc1)C(=O)N[C@H]1CC[C@@H]2CN(S(=O)(=O)c3ccc(C(F)(F)F)cc3)C[C@@H]21	26.2	26.8	–	860	–	–
CC(C)N[C@@H](CC(C)(C)C)C(=O)N[C@H]1CC[C@@H]2CN(S(=O)(=O)c3ccc(C(F)(F)F)cc3)C[C@@H]21	64.3	79.6	–	–	–	IC50 [21]: 2600 nM; Activity (Rattus norvegicus [22]): Toxic; ED50 (Rattus norvegicus [6]): 32 mg/kg; ED50 (Rattus norvegicus [7]): 8 mg/kg; ED50 (Rattus norvegicus [23]): 13 mg/kg; IC50 [8]: 340 nM; Kp at 1 h [24]: 0.9; IC50 [9]: 340 nM; AUC (Rattus norvegicus [25]): 240 ng·h/mL; CL (Rattus norvegicus [26]): 33 mL/min/kg; F (Rattus norvegicus [27]): 46.7%; Vd [18]: 7.1 L/kg; half-life [19]: 2.7 h
